ChEMBL document CHEMBL1201862, “PubChem BioAssay data set” (2004)
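Where inhibition never reached the appropriate level, the endpoint shown equals the highest concentration tested. Otherwise, values were interpolated linearly from a five-concentration, 48-hour dose response in 96-well plates. The concentration for 50% growth inhibition is given as GI50.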 The source made the active and inactive calls. No stated cut-off is given here; in the data, active = GI50 up to about 1.1 µM and inactive = higher.

Experiments:
Experiment in all cases: growth of human tumour cells (NCI), 48 h
A498 = system: A498
ACHN = system: ACHN
EKVX = system: EKVX
HL-60 = system: HL-60
HOP-62 = system: HOP-62
HOP-92 = system: HOP-92
Hs-578T = system: Hs-578T
LOX IMVI = system: LOX IMVI
MDA-MB-231 = system: MDA-MB-231
Malme-3M = system: Malme-3M
NCI/ADR-RES = system: NCI/ADR-RES
OVCAR-8 = system: OVCAR-8
RPMI-8226 = system: RPMI-8226
RXF 393 = system: RXF 393
SF-268 = system: SF-268
SK-MEL-28 = system: SK-MEL-28
SK-MEL-5 = system: SK-MEL-5
SN12C = system: SN12C
SW-620 = system: SW-620
U-251 = system: U-251

SMILES | GI50 (A498) | GI50 (ACHN) | GI50 (EKVX) | GI50 (HL-60) | GI50 (HOP-62) | GI50 (HOP-92) | GI50 (Hs-578T) | GI50 (LOX IMVI) | GI50 (MDA-MB-231) | GI50 (Malme-3M) | GI50 (NCI/ADR-RES) | GI50 (OVCAR-8) | GI50 (RPMI-8226) | GI50 (RXF 393) | GI50 (SF-268) | GI50 (SK-MEL-28) | GI50 (SK-MEL-5) | GI50 (SN12C) | GI50 (SW-620) | GI50 (U-251)
CC(=O)Nc1ccc(-c2nc3ccccc3s2)cc1I | 6.5 µM (inactive) | 26.5 µM (inactive) | 7.87 µM (inactive) | > 100 µM (inactive) | 15.6 µM (inactive) | 26.4 µM (inactive) | 39.5 µM (inactive) | 24.8 µM (inactive) | 17.5 µM (inactive) | 34.8 µM (inactive) | 42.3 µM (inactive) | 18.5 µM (inactive) | > 100 µM (inactive) | 14.8 µM (inactive) | 33.4 µM (inactive) | > 100 µM (inactive) | > 100 µM (inactive) | 36.6 µM (inactive) | > 100 µM (inactive) | 25.1 µM (inactive)
c1ccc2c(c1)Oc1cccc3cccc-2c13 | > 100 µM (inactive) | > 100 µM (inactive) | > 100 µM (inactive) | > 100 µM (inactive) | > 100 µM (inactive) | > 100 µM (inactive) | > 100 µM (inactive) | > 100 µM (inactive) | > 100 µM (inactive) | > 100 µM (inactive) | > 100 µM (inactive) | > 100 µM (inactive) | > 100 µM (inactive) | > 100 µM (inactive) | > 100 µM (inactive) | > 100 µM (inactive) | > 100 µM (inactive) | > 100 µM (inactive) | > 100 µM (inactive) | > 100 µM (inactive)
c1ccc([P+](CC[P+](c2ccccc2)(c2ccccc2)c2ccccc2)(c2ccccc2)c2ccccc2)cc1 | 5.87 µM (inactive) | 19.2 µM (inactive) | 4.76 µM (inactive) | 0.396 µM (active) | 26.4 µM (inactive) | 32.6 µM (inactive) | 7.98 µM (inactive) | 63 µM (inactive) | 38.6 µM (inactive) | 14.1 µM (inactive) | 61.4 µM (inactive) | 4.82 µM (inactive) | 0.693 µM (active) | 27.4 µM (inactive) | 6.05 µM (inactive) | 13.7 µM (inactive) | 8.79 µM (inactive) | 9.31 µM (inactive) | 3.62 µM (inactive) | 2.94 µM (inactive)
CCOC(=O)CCc1ccc(NC(=O)/C=C/c2ccc([N+](=O)[O-])o2)cc1 | 3.14 µM (inactive) | 1.34 µM (inactive) | > 100 µM (inactive) | 0.166 µM (active) | 3.27 µM (inactive) | 4.04 µM (inactive) | 3.16 µM (inactive) | 0.356 µM (active) | 1.8 µM (inactive) | 1.49 µM (inactive) | 1.78 µM (inactive) | 0.681 µM (active) | 0.286 µM (active) | 0.794 µM (active) | 1.12 µM (inactive) | 0.773 µM (active) | 1.49 µM (inactive) | 1.43 µM (inactive) | 0.547 µM (active) | 2.12 µM (inactive)
COc1ccc(N2C(=O)C3c4[nH]c5ccc(OCc6ccccc6)cc5c4C4CCC(C(C)C)CC4C3C2=O)cc1 (stereo not given) | 5.71 µM (inactive) | 10.8 µM (inactive) | 11 µM (inactive) | 1.78 µM (inactive) | 8.63 µM (inactive) | 32.1 µM (inactive) | 2.29 µM (inactive) | 80.5 µM (inactive) | 10.5 µM (inactive) | 21 µM (inactive) | 30.2 µM (inactive) | 15.6 µM (inactive) | > 72.6 µM (inactive) | 13.4 µM (inactive) | 17.2 µM (inactive) | > 100 µM (inactive) | > 100 µM (inactive) | > 100 µM (inactive) | > 100 µM (inactive) | 10.8 µM (inactive)
Cc1nc2ccccc2n1Cc1nnc(N)o1 | > 100 µM (inactive) | > 100 µM (inactive) | > 100 µM (inactive) | > 100 µM (inactive) | > 100 µM (inactive) | > 100 µM (inactive) | > 100 µM (inactive) | > 100 µM (inactive) | > 100 µM (inactive) | > 100 µM (inactive) | > 100 µM (inactive) | > 100 µM (inactive) | > 100 µM (inactive) | > 100 µM (inactive) | > 100 µM (inactive) | > 100 µM (inactive) | > 100 µM (inactive) | > 100 µM (inactive) | > 100 µM (inactive) | > 100 µM (inactive)
CCOC(=O)C1=C(C)N(c2ccc(Cl)cc2)C2(O)C=CC(=O)C3C(=O)N(c4ccccc4)C(=O)C132 (stereo not given) | 1.56 µM (inactive) | 1.59 µM (inactive) | 1.91 µM (inactive) | 2.76 µM (inactive) | 2.02 µM (inactive) | 0.0649 µM (active) | 2.39 µM (inactive) | 1.36 µM (inactive) | 2.09 µM (inactive) | 1.66 µM (inactive) | 2.36 µM (inactive) | 2.12 µM (inactive) | 1.07 µM (active) | 1.76 µM (inactive) | 1.76 µM (inactive) | 1.51 µM (inactive) | 1.6 µM (inactive) | 2.3 µM (inactive) | 1.54 µM (inactive) | 1.87 µM (inactive)
CC1=NN(C(=O)CC(=O)N(C(=O)c2ccccc2)c2ccc(Cl)cc2)C(=O)C1/N=N/c1ccc([N+](=O)[O-])cc1 (stereo not given) | > 10 µM (inactive) | > 10 µM (inactive) | > 10 µM (inactive) | > 10 µM (inactive) | > 10 µM (inactive) | > 10 µM (inactive) | > 10 µM (inactive) | > 10 µM (inactive) | > 10 µM (inactive) | > 10 µM (inactive) | > 10 µM (inactive) | > 10 µM (inactive) | > 10 µM (inactive) | > 10 µM (inactive) | > 10 µM (inactive) | > 10 µM (inactive) | > 10 µM (inactive) | > 10 µM (inactive) | > 10 µM (inactive) | > 10 µM (inactive)
O=c1cc(-c2ccccc2)c2ccc(O)c(CN(CCCl)CCCl)c2o1 | 19.1 µM (inactive) | 20.4 µM (inactive) | 25.5 µM (inactive) | 13.4 µM (inactive) | 17.2 µM (inactive) | 20.8 µM (inactive) | 24.9 µM (inactive) | 8.26 µM (inactive) | 15.7 µM (inactive) | 21 µM (inactive) | 32.3 µM (inactive) | 15.8 µM (inactive) | 12.6 µM (inactive) | 14 µM (inactive) | 17.5 µM (inactive) | 18.8 µM (inactive) | 16.9 µM (inactive) | 17.2 µM (inactive) | 18.8 µM (inactive) | 22.1 µM (inactive)
CCSC(=O)/C=C1\CN(C(=O)OC(C)(C)C)C1C(=O)OC(C)(C)C (stereo not given) | 11.2 µM (inactive) | 3.63 µM (inactive) | 10.5 µM (inactive) | 1.87 µM (inactive) | 14.1 µM (inactive) | 2.59 µM (inactive) | 4.17 µM (inactive) | 1.45 µM (inactive) | 4.29 µM (inactive) | 1.95 µM (inactive) | 2.74 µM (inactive) | 2.91 µM (inactive) | 1.87 µM (inactive) | 1.91 µM (inactive) | 4.32 µM (inactive) | 1.86 µM (inactive) | 3.37 µM (inactive) | 1.86 µM (inactive) | 2.07 µM (inactive) | 6.19 µM (inactive)
CC(=C(C(=O)O)C(=O)O)c1cc(-c2cccs2)cc(-c2ccc(Cl)cc2)c1O | 16 µM (inactive) | 15.8 µM (inactive) | 17.3 µM (inactive) | 9.71 µM (inactive) | 24.1 µM (inactive) | 14.9 µM (inactive) | > 42.7 µM (inactive) | 13.2 µM (inactive) | 18.2 µM (inactive) | 21.6 µM (inactive) | 20.3 µM (inactive) | 19.2 µM (inactive) | 2.78 µM (inactive) | 14 µM (inactive) | 17.9 µM (inactive) | 17.5 µM (inactive) | 19.3 µM (inactive) | 15.9 µM (inactive) | 18.7 µM (inactive) | 14.3 µM (inactive)
N/C(=N\O)N/N=C/c1ccc2c(c1)OCO2 | 21 µM (inactive) | 20 µM (inactive) | 8.85 µM (inactive) | 18.2 µM (inactive) | 26.6 µM (inactive) | 20.8 µM (inactive) | > 100 µM (inactive) | 17.4 µM (inactive) | 38.5 µM (inactive) | 17.5 µM (inactive) | 6.75 µM (inactive) | 12.5 µM (inactive) | 21.2 µM (inactive) | 29 µM (inactive) | 13.9 µM (inactive) | 46 µM (inactive) | 15.4 µM (inactive) | 34.4 µM (inactive) | 63.4 µM (inactive) | 36.6 µM (inactive)
NC(=O)Cc1nc2c(O)ncnc2n1C1OC(CO)C(O)C1O (stereo not given) | > 100 µM (inactive) | > 100 µM (inactive) | > 100 µM (inactive) | > 100 µM (inactive) | > 100 µM (inactive) | > 100 µM (inactive) | > 100 µM (inactive) | > 100 µM (inactive) | > 100 µM (inactive) | > 100 µM (inactive) | > 100 µM (inactive) | > 100 µM (inactive) | > 100 µM (inactive) | > 100 µM (inactive) | > 100 µM (inactive) | > 100 µM (inactive) | > 100 µM (inactive) | > 100 µM (inactive) | > 100 µM (inactive) | > 100 µM (inactive)
COC(C)(C)C(O)C(O)C[C@H](C)C1CC=C2C1(C)CCC1[C@@]3(C)CCC(OC(C)=O)C(C)(C)C3CC(OC3OC(COC(C)=O)C(O)C(O)C3O)[C@@]21C (stereo not given in full) | 3.31 µM (inactive) | 3.87 µM (inactive) | 4.79 µM (inactive) | 2.59 µM (inactive) | 3.98 µM (inactive) | 3.6 µM (inactive) | 4.37 µM (inactive) | 2.32 µM (inactive) | 2.5 µM (inactive) | 5.55 µM (inactive) | > 10 µM (inactive) | 3.72 µM (inactive) | 2.07 µM (inactive) | 3.85 µM (inactive) | 6.05 µM (inactive) | 4.57 µM (inactive) | 2.21 µM (inactive) | 4.2 µM (inactive) | 5.38 µM (inactive) | 4.37 µM (inactive)
